The results in this text go back to patent publication US11999758B2, “Inhibitors of the YAP/TAZ-TEAD interaction and their use in the treatment of cancer” (INVENTIVA, priority 2018, dated 2024).

This assay deals with T1, YAP-TEAD interaction (Homo sapiens, UniProt P28347).
T1 construct: expressed in transfected cells; host or cells: HEK293 GripTite 293 MSR (Invitrogen R795-07)
In words: Cell-based TEAD-GAL4 transactivation assay (luciferase reporter). As to conditions: HEK293 cells transfected with TEAD1-Gal4, YAP mutant (S127A, S397A) and luciferase reporter, compounds 0.1 μM to 30 μM; for Emax: HEK293, 24 h, read-out: TEAD-GAL4 Transactivation activity Max Act. Here is the method: To identify inhibitors of YAP-TEAD interaction, a transient transactivation assay was carried out on HEK293 cell line (HEK293 GripTite™ 293 MSR (Invitrogen R795-07)) using plasmids containing the full length TEAD1 sequences, the full length YAP mutant (S127A, S397A) and a luciferase gene reporter. All expression constructs were performed into a pSG5 backbone plasmid in which the SV40 promoter was replaced by the CMV promoter. The TEAD1 construct was prepared by cloning the full-length human TEAD1 cDNA in fusion with the Gal4 DNA Binding Domain (AA 1-148) into pSG5_CMV to create the TEAD1 (FL)_hum_pSG5Gal4_CMV. The full-length YAP mutant (S127A, S397A) was also cloned into pSG5_CMV to create the YAP (FL)_hum_pSG5_mutS127A_S397A_CMV. The reporter plasmid GAL4(5×RE)_TK(−105/+56)_pGL3-Basic contains 5 copies of the GAL4 responsive element (5′-TCGGAGGACAGTACTCC-3′) upstream of the thymidine kinase (TK) promoter (−105/+56) inserted in a pGL3-Basic vector. To evaluate the selectivity of our compounds in blocking the YAP-TEAD interaction, a counter-screening protein-protein interaction transactivation assay was also established. Briefly, two other expression plasmids, the pBD-P53 which expresses the P53 (AA 72-390) in fusion with Gal4 and the pAD-SV40T which expresses the SV40 large T antigen (AA 84-708,AgT), were created. HEK293 cells were seeded at 5×10^4 cells/well in 96 well plates (assay plates) in DMEM medium containing 4.5 g/L D-glucose, 10% high inactivated (HI) fetal bovine serum 1% Glutamax, 1% non-essential amino acid and 1% sodium pyruvate and 0.5% penicillin/streptomycin at 37° C. in a humidified atmosphere of 8% CO2. After 24 h, transfections were performed using Jet-PEI as transfectant (101B-010 Polyplus Transfection), according to the instructions of the manufacturer (N/P=10) and a ratio YAP/TEAD=10 (per well: 50 ng of YAP(FL), 5 ng of TEAD(FL) and 50 ng of reporter plasmid). Six hours after cell transfection, the plates (‘assay plate’) were washed with 100 μl PBS per well and cells were treated with compounds in semi-log from 0.1 μM to 30 μM or DMSO 0.5% as control in DMEM, 4.5 g/L D-Glucose without phenol red, 0.3% BSA, 1% glutamax, 1% NEAA, 1% sodium pyruvate. 24 h later, the luciferase activity was determined after addition of 100 μl of Steady Glo™ luciferase assay system (Promega E2550) according to the manufacturer's directions. Luciferase activity in cell extracts was measured by reading luminescence using the Envision device.
The cellular response was determined by fitting the concentration response curves using a 3-parameter curve fit equation and determining the concentration that inhibited the luciferase activity by 50%.
In general terms: Reporter assays use an easily measured gene product as a stand-in for the process of interest.

Structures are written as SMILES.

T1 sequence (P28347 whole entry): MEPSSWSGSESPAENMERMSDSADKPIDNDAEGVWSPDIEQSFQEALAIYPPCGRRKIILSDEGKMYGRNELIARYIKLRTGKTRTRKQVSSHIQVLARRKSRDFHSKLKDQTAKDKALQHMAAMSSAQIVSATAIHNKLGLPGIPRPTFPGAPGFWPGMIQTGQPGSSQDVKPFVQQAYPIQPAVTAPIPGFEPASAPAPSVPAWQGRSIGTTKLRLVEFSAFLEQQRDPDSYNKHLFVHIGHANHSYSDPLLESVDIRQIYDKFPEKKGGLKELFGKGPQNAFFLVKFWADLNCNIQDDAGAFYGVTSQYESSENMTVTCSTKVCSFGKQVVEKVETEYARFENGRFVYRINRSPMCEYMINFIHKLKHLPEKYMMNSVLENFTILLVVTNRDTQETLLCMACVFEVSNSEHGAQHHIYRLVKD

As usually defined, the IC50 is the concentration at which inhibition is half-maximal. Low values mean inhibition by little substance, high ones a need for much substance. With `CCN(/N=C/c1ccc(B(O)O)c(OC)c1)c1ncnc2ncsc12` [Ex64, [4-[(E)-[ethyl(thiazolo[4,5-d]pyrimidin-7-yl)hydrazono]methyl]-2-methoxy-phenyl]boronic acid], the Emax turned out to be 96%. Besides, the midpoint of inhibition (24 h), the IC50, lay at 2760 nM. On the same counts, the results for `CCN(/N=C/c1ccc2c(c1)COB2O)c1ncnc2c(C(=O)NC3COC3)csc12` [Ex115, 4-[ethyl-[(E)-(1-hydroxy-3H-2,1-benzoxaborol-5-yl)methyleneamino]amino]-N-(oxetan-3-yl)thieno[3,2-d]pyrimidine-7-carboxamide] are 79% and 1740 nM.

Take `COc1cccc2c(N(C)/N=C/c3ccc4c(c3)COB4O)ncnc12` [Ex 33, N-[(E)-(1-hydroxy-3H-2,1-benzoxaborol-5-yl)methyleneamino]-8-methoxy-N-methyl-quinazolin-4-amine]: the Emax is 86%. Besides, under “24 h”, half-maximal inhibition (IC50) required 4000 nM. `CC(C)CN(/N=C/c1ccc2c(c1)COB2O)c1ncnc2ccsc12` [Ex 35, N-[(E)-(1-hydroxy-3H-2,1-benzoxaborol-5-yl)methyleneamino]-N-isobutyl-thieno [3,2-d]pyrimidin-4-amine]: the Emax stood at 87%. The 50% inhibitory concentration (IC50) (24 h) stood at 1360 nM. Taken in the same sequence, the figures for `COc1cc(C2=NN(C3=NS(=O)(=O)c4ccccc43)C(C)CC2)ccc1B(O)O` (stereo not drawn) [Ex 52, [4-[2-(1,1-dioxo-1,2-benzothiazol-3-yl)-3-methyl-4,5-dihydro-3H-pyridazin-6-yl]-2-methoxy-phenyl]boronic acid] were 70% and 1660 nM. On the same counts, the results for `CCCn1ccc2c(N(CC)/N=C/c3ccc4c(c3)COB4O)ncnc21` [Ex84, N-ethyl-N-[(E)-(1-hydroxy-3H-2,1-benzoxaborol-5-yl)methyleneamino]-7-propyl-pyrrolo[2,3-d]pyrimidin-4-amine] are 85% and 1030 nM. On the same counts, the results for `CCC(C)N(/N=C/c1ccc(B(O)O)c(OC)c1)C1=NS(=O)(=O)c2ccccc21` (stereo not drawn) [Ex 16, [4-[(E)-[(1,1-dioxo-1,2-benzothiazol-3-yl)-sec-butyl-hydrazono]methyl]-2-methoxyphenyl]boronic acid] are 76% and 4160 nM. As to `COc1cc(C2=NN(c3ncnc4ccsc34)C(C)CC2)ccc1B(O)O` (stereo not drawn) [Ex72, [2-methoxy-4-(3-methyl-2-thieno[3,2-d]pyrimidin-4-yl-4,5-dihydro-3H-pyridazin-6-yl)phenyl]boronic acid], the Emax amounted to 85%. This compound also showed a concentration for half-maximal inhibition (IC50) (24 h) of 1860 nM. Taken in the same sequence, the figures for `CCCCN(CCCC)C(=O)c1csc2c(N(CC)/N=C/c3ccc4c(c3)COB4O)ncnc12` [Ex114, N,N-dibutyl-4-[ethyl-[(E)-(1-hydroxy-3H-2,1-benzoxaborol-5-yl)methyleneamino]amino]thieno[3,2-d]pyrimidine-7-carboxamide] were 83% and 1740 nM. Taken in the same sequence, the figures for `CCN(/N=C/c1ccc2c(c1)COB2O)c1ncnc2cn[nH]c12` [Ex78, N-ethyl-N-[(E)-(1-hydroxy-3H-2,1-benzoxaborol-5-yl)methyleneamino]-1H-pyrazolo[4,3-d]pyrimidin-7-amine] were 75% and 2220 nM.

With `CCN(/N=C/c1ccc(B(O)O)c(OC)c1)c1ncnc2ccsc12` [Ex63, [4-[(E)-[ethyl(thieno[3,2-d]pyrimidin-4-yl)hydrazono]methyl]-2-methoxy-phenyl]boronic acid], the Emax came out at 63%. Under “24 h”, this compound returned an IC50 of 690 nM. Taken in the same sequence, the figures for `COc1cc(OC)c2c(c1)C(N1N=C(c3ccc(B(O)O)c(OC)c3)CCC1C)=NS2(=O)=O` (stereo not drawn) [Ex 54, [4-[2-(5,7-dimethoxy-1,1-dioxo-1,2-benzothiazol-3-yl)-3-methyl-4,5-dihydro-3H-pyridazin-6-yl]-2-methoxy-phenyl]boronic acid] were 76% and 2350 nM. Taken in the same sequence, the figures for `COc1cc(C2=NN(c3ncnc4c(OC)cccc34)C(C)CC2)ccc1B(O)O` (single isomer, unassigned; isomer 1) [Ex124, [2-methoxy-4-[2-(8-methoxyquinazolin-4-yl)-3-methyl-4,5-dihydro-3H-pyridazin-6-yl]phenyl]boronic acid (isomer 1)] were 93% and 7270 nM. Taken in the same sequence, the figures for `COCCCN(/N=C/c1ccc2c(c1)COB2O)c1ncnc2nc(SC)sc12` [Ex96, N-[(E)-(1-hydroxy-3H-2,1-benzoxaborol-5-yl)methyleneamino]-N-(3-methoxypropyl)-2-methylsulfanyl-thiazolo[4,5-d]pyrimidin-7-amine] were 87% and 100 nM. Turning to `COc1cc(OC)c2c(c1)C(N(CC(C)C)/N=C/c1ccc(B(O)O)c(Cl)c1)=NS2(=O)=O` [Ex 15, [2-chloro-4-[(E)-[(5,7-dimethoxy-1,1-dioxo-1,2-benzothiazol-3-yl)-isobutyl-hydrazono]methyl]phenyl]boronic acid], the Emax was 95%. On to `CCN(/N=C/c1ccc2c(c1)COB2O)c1ncnc2ncsc12` [Ex87, N-ethyl-N-[(E)-(1-hydroxy-3H-2,1-benzoxaborol-5-yl)methyleneamino]-thiazolo[4,5-d]pyrimidin-7-amine], for which the Emax came out at 82%. Also, where the note is “24 h”, the IC50 turned out to be 590 nM. Consider `Cc1ccc2c(c1)C(N(CC(C)C)/N=C/c1ccc3c(c1)COB3O)=NS2(=O)=O` [Ex 29, N-[(E)-(1-hydroxy-3H-2,1-benzoxaborol-5-yl)methyleneamino]-N-isobutyl-5-methyl-1,1-dioxo-1,2-benzothiazol-3-amine], for which the Emax is 91%. Regarding `Cc1csc2c(N3N=C(c4ccc5c(c4)COB5O)CCC3C)ncnc12` (single isomer, unassigned; (-)) [Ex120, (−) 4-[6-(1-hydroxy-3H-2,1-benzoxaborol-5-yl)-3-methyl-4,5-dihydro-3H-pyridazin-2-yl]-7-methyl-thieno[3,2-d]pyrimidine], where the note is “24 h”, the midpoint of inhibition, the IC50, lay at 500 nM and the “TEAD-GAL4 Transactivation activity Max Act” value amounted to 84%. Regarding `CC(C)CN(/N=C/c1ccc2c(c1)C(C)OB2O)C1=NS(=O)(=O)c2ccccc21` (stereo not drawn) [Ex 49, N-[(E)-(1-hydroxy-3-methyl-3H-2,1-benzoxaborol-5-yl)methyleneamino]-N-isobutyl-1,1-dioxo-1,2-benzothiazol-3-amine], the Emax stood at 88%. The same compound showed an IC50 (24 h) of 4680 nM.

Turning to `COCCCN(/N=C/c1ccc2c(c1)COB2O)C1=NS(=O)(=O)c2ccccc21` [Ex 25, N-[(E)-(1-hydroxy-3H-2,1-benzoxaborol-5-yl)methyleneamino]-N-(3-methoxypropyl)-1,1-dioxo-1,2-benzothiazol-3-amine], the Emax stood at 78%. The compound also yielded an IC50 (24 h) of 2780 nM. On the same counts, the results for `Cc1csc2c(N(CC(C)C)/N=C/c3ccc4c(c3)COB4O)ncnc12` [Ex93, N-[(E)-(1-hydroxy-3H-2,1-benzoxaborol-5-yl)methyleneamino]-N-isobutyl-7-methyl-thieno[3,2-d]pyrimidin-4-amine] are 80% and 710 nM. For the compound `COc1ccc2ncnc(N(CC(C)C)/N=C/c3ccc(B(O)O)c(OC)c3)c2c1` [Ex 19, [4-[(E)-[isobutyl-(6-methoxyquinazolin-4-yl)hydrazono]methyl]-2-methoxyphenyl] boronic acid], the Emax worked out at 97%. This compound showed an IC50 (24 h) of 3360 nM.
